Measurements from article PMC7667546 (Iranian Journal of Pharmaceutical Research : IJPR, 2020).
Converted amounts (≈) assume the structure as drawn. “And” between values parts separate entries of the source, which are not always exact repeats. Equal values may be shown once. Where a name gives a salt, the structure may show the parent alone. Read-outs that look alike come from different tables or passages of the source.

Columns and labels:
[1] = target: T1, butyrylcholinesterase (BChE) (Homo sapiens, UniProt P06276); assay: Butyrylcholinesterase inhibition in vitro; assay type: biochemical; conditions: for IC50: assayed at 100-0.1 µg/mL, mean ± S.D.; for inhibition at 10 µg/mL: read-out: Inhibition (%) BChE
T1 construct: purchased Sigma-Aldrich (Steinheim, Germany)
Procedure: (§1) Details of all biological activity and molecular modeling studies are given as supplementary material. The enzyme activities of the extracts were studied by observing urease, tyrosinase acetyl- and butyryl-cholinesterase inhibition activities ([22]-[25]). The ligands were then applied with partial atomic charges derived by ﬁtting Antechamber obtained by electronic structure calculation module in AMBER and assigned the AM1-BCC charges ([26]-[29]).
(§2) All compounds were assayed in-vitro against AChE and BChE at 100-0.1 µg/mL.

[2] = target: T2, acetylcholinesterase (AChE) (Homo sapiens, UniProt P22303); assay: biochemical; conditions: for inhibition at 10 µg/mL: read-out: Inhibition (%) AChE
T2 construct: purchased Sigma-Aldrich (Steinheim, Germany)
Procedure: as §1, §2

tyrosinase = assay: Tyrosinase inhibition in vitro; assay type: biochemical, mushroom; conditions: N.A. = not active; for Inhibition (%) Tyrosinase: 10µg/mL, mean ± S.D. of three measurements; for Equivalent Tyrosinase (µg kojic acid activity/mg compound): mean ± S.D.
Source text: as §1

urease = target: T3, urease (Canavalia ensiformis, UniProt P07374); assay: biochemical; set-up: species or system Canavalia ensiformis (Jack bean); conditions: N.A. = not active; for Inhibition (%) Urease: 10µg/mL; for Inhibition (%) Urease / inhibition at 10 µg/mL: mean ± S.D. of three measurements; for Equivalent Urease (µg thiourea activity/mg compound): mean ± S.D.; for inhibition at 10 µg/mL: read-out: Inhibition (%) Urease, 10µg/mL
T3 construct: purchased Sigma (Germany) Type III, powder, 15,000-50,000 units/g solid
Source text: as §1

BChE [3] = test system: BChE; set-up: method as in Senol et al (2017); conditions: ref Senol et al (2017); cited from earlier work
BChE [4] = test system: BChE; set-up: method as in Ramirez et al. ([39]); conditions: ref Ramirez et al. ([39]); read-out: IC50 against BChE; cited from earlier work
[5] = 10µg/mL, mean ± S.D. of three measurements, N.A. = not active
[6] = assayed at 100-0.1 µg/mL, mean ± S.D., N.A. = not active, read-out: IC50 AChE (converted)
[7] = read-out: IC50 BChE (converted)

T3 sequence (P07374 whole entry, looked up): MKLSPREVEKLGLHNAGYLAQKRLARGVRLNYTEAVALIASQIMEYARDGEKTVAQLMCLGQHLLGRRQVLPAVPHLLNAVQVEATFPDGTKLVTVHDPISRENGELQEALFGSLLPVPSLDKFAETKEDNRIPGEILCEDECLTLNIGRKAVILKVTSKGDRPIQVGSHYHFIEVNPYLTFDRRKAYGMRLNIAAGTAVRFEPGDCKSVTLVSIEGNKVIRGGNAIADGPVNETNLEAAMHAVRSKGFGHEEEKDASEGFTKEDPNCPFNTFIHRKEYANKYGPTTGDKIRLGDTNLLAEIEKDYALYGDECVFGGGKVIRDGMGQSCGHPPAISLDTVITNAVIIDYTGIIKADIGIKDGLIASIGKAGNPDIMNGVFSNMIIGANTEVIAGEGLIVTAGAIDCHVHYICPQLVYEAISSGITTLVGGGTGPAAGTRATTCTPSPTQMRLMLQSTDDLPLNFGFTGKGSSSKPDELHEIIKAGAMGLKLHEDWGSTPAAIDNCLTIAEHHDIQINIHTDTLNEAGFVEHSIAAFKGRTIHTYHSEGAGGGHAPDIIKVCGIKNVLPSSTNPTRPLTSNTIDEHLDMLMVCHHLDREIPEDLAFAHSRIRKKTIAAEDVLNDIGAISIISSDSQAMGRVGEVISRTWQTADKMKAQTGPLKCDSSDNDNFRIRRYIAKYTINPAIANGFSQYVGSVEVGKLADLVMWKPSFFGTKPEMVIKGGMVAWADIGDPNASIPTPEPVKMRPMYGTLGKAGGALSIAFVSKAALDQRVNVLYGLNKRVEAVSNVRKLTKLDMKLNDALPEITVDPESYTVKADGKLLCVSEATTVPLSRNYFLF
T1 sequence (P06276 29-602): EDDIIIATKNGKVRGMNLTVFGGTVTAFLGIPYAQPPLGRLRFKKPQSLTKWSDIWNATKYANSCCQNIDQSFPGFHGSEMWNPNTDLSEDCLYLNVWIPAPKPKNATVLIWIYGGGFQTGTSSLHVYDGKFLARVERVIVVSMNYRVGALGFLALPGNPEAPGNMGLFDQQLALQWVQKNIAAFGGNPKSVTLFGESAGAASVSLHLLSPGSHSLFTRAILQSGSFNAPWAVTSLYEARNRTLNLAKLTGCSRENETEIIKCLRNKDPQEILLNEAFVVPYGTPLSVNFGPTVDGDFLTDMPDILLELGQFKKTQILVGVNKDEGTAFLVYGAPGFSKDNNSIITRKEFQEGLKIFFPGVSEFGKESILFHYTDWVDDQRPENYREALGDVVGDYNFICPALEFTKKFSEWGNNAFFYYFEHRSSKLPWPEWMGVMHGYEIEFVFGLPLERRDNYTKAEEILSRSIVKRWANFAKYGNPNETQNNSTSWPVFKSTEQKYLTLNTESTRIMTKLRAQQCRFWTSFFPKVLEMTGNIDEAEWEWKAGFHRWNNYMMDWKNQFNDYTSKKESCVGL
T2 sequence (P22303 32-614, species assumed): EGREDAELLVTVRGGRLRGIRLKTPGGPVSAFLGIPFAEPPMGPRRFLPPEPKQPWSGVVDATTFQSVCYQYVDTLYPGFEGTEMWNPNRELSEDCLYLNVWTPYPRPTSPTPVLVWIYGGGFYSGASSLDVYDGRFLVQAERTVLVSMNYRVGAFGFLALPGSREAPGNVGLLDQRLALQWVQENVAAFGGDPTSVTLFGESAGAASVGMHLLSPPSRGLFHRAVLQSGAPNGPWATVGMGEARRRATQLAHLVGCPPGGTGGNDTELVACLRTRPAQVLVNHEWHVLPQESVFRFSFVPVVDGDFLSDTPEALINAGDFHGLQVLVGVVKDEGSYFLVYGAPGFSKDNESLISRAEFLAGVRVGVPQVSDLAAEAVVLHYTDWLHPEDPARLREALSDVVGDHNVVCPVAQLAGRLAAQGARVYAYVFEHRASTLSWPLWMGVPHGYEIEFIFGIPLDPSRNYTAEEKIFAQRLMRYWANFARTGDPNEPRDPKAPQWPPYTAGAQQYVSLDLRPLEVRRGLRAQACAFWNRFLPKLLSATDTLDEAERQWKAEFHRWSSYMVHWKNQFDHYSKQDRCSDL

Structure (SMILES) | IC50 ([1]; IC50 BChE) | inhibition at 10 µg/mL [1] | inhibition at 10 µg/mL [2, 5] | IC50 [2, 6] | Inhibition (%) Tyrosinase (tyrosinase) | IC50 [2] | Equivalent Urease (µg thiourea activity/mg compound) (urease) | inhibition at 10 µg/mL (urease) | also measured
O=C(/C=C/c1ccc(O)c(O)c1)O[C@H](Cc1ccc(O)c(O)c1)C(=O)O [Compound 1, Rosmarinic acid] | 35.4 µM | 42.76 ± 0.32% | 20.2 ± 0.21% | > 278 µM | 12.11±0.02% | – | – | – | Equivalent Tyrosinase (µg kojic acid activity/mg compound) (tyrosinase): 105.58±0.18 µg kojic acid activity/mg compound
COc1ccc(-c2cc(=O)c3c(O)c(OC)c(OC)cc3o2)cc1 [Compound 2, Salvigenin] | – | – | 22.72 ± 0.14% | > 305 µM | – | – | – | – | inhibition at 10 µg/mL [1, 5]: 43.13 ± 0.21%; IC50 [1, 7]: 34.9 µM
O=C(/C=C/c1ccc(O)c2c1[C@H](C(=O)O[C@H](Cc1ccc(O)c(O)c1)C(=O)O)[C@@H](c1ccc(O)c(O)c1)O2)O[C@H](Cc1ccc(O)c(O)c1)C(=O)O [Compound 3, Salvianolic acid B] | 14.6 µM | – | 10.11 ± 0.08% | – | – | > 139 µM | 192.26±0.21 µg thiourea activity/mg compou | 49.83 ± 0.27% | inhibition at 10 µg/mL [1, 5]: 49.83 ± 0.27%; Inhibition (%) Urease (urease): 45.52±0.68%
O=C(/C=C/c1ccc(O)c(O)c1/C=C/c1ccc(O)c(O)c1)O[C@H](Cc1ccc(O)c(O)c1)C(=O)O [Compound 4, Salvianolic acid A] | 97.7 µM | – | 38.82 ± 0.12% | – | – | 46.6 µM | – | – | inhibition at 10 µg/mL [1, 5]: 27.49 ± 0.08%
Cc1coc2c1C(=O)C(=O)c1c-2ccc2c1CCCC2(C)C [Compound 5, Tanshinone IIA] | – | 66.3 ± 1.18% | – | > 340 µM | – | – | 16.12±0.01 µg thiourea activity/mg compou | 14.3 ± 0.42% | IC50 [1, 7]: 3.8 µM; inhibition at 10 µg/mL [2]: 32.3 ± 0.44%
Cc1cccc2c3c(ccc12)C1=C(C(=O)C3=O)[C@@H](C)CO1 [Compound 6, Dihydrotanshinone I] | 1.8 µM | 87.19 ± 0.23% | – | – | – | 5.39 µM | – | – | inhibition at 10 µg/mL [2]: 64.54 ± 0.36%; IC50 value (BChE) (BChE [3]): 1.71 µg/mL (≈ 6.14 µM)
Cc1coc2c1C(=O)C(=O)c1c-2ccc2c(C)cccc12 [Compound 7, Tanshinone I] | 100 µM | 33 ± 0.86% | – | – | 39.82±1.16% | 138 µM | 174.73±0.19 µg thiourea activity/mg compou | 42.4 ± 0.85% | inhibition at 10 µg/mL [2]: 31.3 ± 0.72%; Equivalent Tyrosinase (µg kojic acid activity/mg compound) (tyrosinase): 372.86±2.47 µg kojic acid activity/mg compound
CC(C)c1cc2c(c(O)c1O)[C@@]1(C(=O)O)CCCC(C)(C)[C@@H]1CC2 [Compound 8, Carnosic Acid] | 12.4 µM | 58.5 ± 1.18% | 38 ± 0.96% | 95.7 µM | 5.92±0.06% | – | 62.12±0.07 µg thiourea activity/mg compou | 22.42 ± 0.15% | Equivalent Tyrosinase (µg kojic acid activity/mg compound) (tyrosinase): 45.93±0.71 µg kojic acid activity/mg compound
CC(C)c1cc2c(c(O)c1O)[C@@]13CCCC(C)(C)[C@@H]1C[C@@H]2OC3=O [Compound 9, Carnosol] | – | – | 47.6 ± 23% | 33.7 µM | – | – | 26.60±0.03 µg thiourea activity/mg compou | 16.1 ± 0.42% | inhibition at 10 µg/mL [1, 5]: 57.99 ± 0.15%; IC50 [1, 7]: 11.9 µM and 12.5 µM; IC50 (BChE [4]): 5.1 µM
C[C@H]1COC2=C1C(=O)C(=O)c1c2ccc2c1CCCC2(C)C [Compound 10, Cryptotanshinone] | 95.9 µM | 35.16 ± 0.27% | – | – | – | > 337 µM | 103.05±0.11 µg thiourea activity/mg compou | 29.7 ± 1.16% | inhibition at 10 µg/mL [2]: 17.46 ± 0.11%
O=C(O)C(O)Cc1ccc(O)c(O)c1 (stereo not drawn) [Compound 11, Danshensu Salt] | 122 µM | 35.37 ± 0.13% | – | – | 6.20±0.08% | – | – | – | Equivalent Tyrosinase (µg kojic acid activity/mg compound) (tyrosinase): 48.67±0.23 µg kojic acid activity/mg compound
COc1ccc2c3c1O[C@H]1C[C@@H](O)C=C[C@@]31CCN(C)C2 [Galanthamine, galanthamine hydrobromide, reference compound] | – | 67.52 ± 0.41% | – | – | – | – | – | – | –
O=c1cc(CO)occ1O [Kojic acid, reference compound] | – | – | – | – | 69.07±0.38% | – | – | – | –
NC(N)=S [Thiourea, thiourea, reference compound] | – | – | – | – | – | – | – | – | Inhibition (%) Urease (urease): 75.14±1.34%
